Data taken from patent US20240041042A1, “1-(PYRIDYL)-5-AZINYLPYRAZOLE DERIVATIVES, AND THEIR USE FOR CONTROL OF UNDESIRED PLANT GROWTH” (Bayer Aktiengesellschaft, priority 2020, published 2024).

Experiments:
Assay type in all cases: in vivo
[1] = test system: Alopecurus myosuroides (ALOMY); assay: Post-emergence herbicidal action against ALOMY; conditions: visual rating about 3 weeks after treatment vs untreated controls (100% = plants have died, 0% = like control plants)
In short: (§1)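 Post-emergence greenhouse spray, one-leaf stage, 600 l/ha water plus 0.5% additive; WP or EC formulations; application rates 320 g/ha or lower. Visual % damage vs untreated controls at ~3 weeks.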

[2] = test system: Polygonum convolvulus (POLCO); assay: Pre-emergence herbicidal action against POLCO
In short: (§2)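 Seeds sown in pots and covered with soil; WP or EC formulations sprayed onto the soil surface at 600 l/ha water with 0.5% additive, at 320 g/ha or lower. Greenhouse growth for about 3 weeks, then visual scoring as % effect against untreated controls (100% = plants dead).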

[3] = test system: Matricaria inodora (MATIN); assay: Post-emergence herbicidal action against MATIN
In short: as §1

[4] = test system: Avena fatua (AVEFA); assay: Pre-emergence herbicidal action against AVEFA; conditions: visual scoring after about 3 weeks vs untreated controls
In short: as §2

[5] = test system: Setaria viridis (SETVI); assay: Pre-emergence herbicidal action against SETVI; conditions: dosage 320 g/ha
In short: as §2

[6] = test system: Alopecurus myosuroides (ALOMY); assay: Pre-emergence herbicidal action against ALOMY; conditions: scored visually after about 3 weeks, 100% = plants have died
In short: as §2

[7] = test system: Abutilon theophrasti (ABUTH); assay: Post-emergence herbicidal action against ABUTH; conditions: visual rating about 3 weeks after treatment vs untreated controls (100% = plants have died, 0% = like control plants)
In short: as §1

[8] = test system: Avena fatua (AVEFA); assay: Post-emergence herbicidal action against AVEFA; conditions: visual rating about 3 weeks after treatment
In short: as §1

[9] = test system: Amaranthus retroflexus (AMARE); assay: Pre-emergence herbicidal action against AMARE; conditions: visual scoring after about 3 weeks vs untreated controls
In short: as §2

[10] = test system: Viola tricolor (VIOTR); assay: Pre-emergence herbicidal action against VIOTR
In short: as §2

[11] = test system: Polygonum convolvulus (POLCO); assay: Post-emergence herbicidal action against POLCO
In short: as §1

[12] = test system: Verconica persica (VERPE); assay: Pre-emergence herbicidal action against VERPE
In short: as §2

[13] = test system: Pharbitis purpurea (PHBPU); assay: Post-emergence herbicidal action against PHBPU; conditions: dosage 320 g/ha
In short: as §1

[14] = test system: Verconica persica (VERPE); assay: Post-emergence herbicidal action against VERPE
In short: as §1

[15] = test system: Abutilon theophrasti (ABUTH); assay: Pre-emergence herbicidal action against ABUTH; conditions: 100% = plants have died
In short: as §2

[16] = test system: Amaranthus retroflexus (AMARE); assay: Post-emergence herbicidal action against AMARE
In short: as §1

[17] = test system: Lolium rigidum (LOLRI); assay: Post-emergence herbicidal action against LOLRI
In short: as §1

[18] = test system: Pharbitis purpurea (PHBPU); assay: Pre-emergence herbicidal action against PHBPU; conditions: dosage 320 g/ha
In short: as §2

[19] = test system: Viola tricolor (VIOTR); assay: Post-emergence herbicidal action against VIOTR
In short: as §1

[20] = test system: Setaria viridis (SETVI); assay: Post-emergence herbicidal action against SETVI
In short: as §1

[21] = test system: Echinochloa crus-galli (ECHCG); assay: Pre-emergence herbicidal action against ECHCG
In short: as §2

[22] = test system: Matricaria inodora (MATIN); assay: Pre-emergence herbicidal action against MATIN
In short: as §2

[23] = test system: Echinochloa crus-galli (ECHCG); assay: Post-emergence herbicidal action against ECHCG
In short: as §1

[24] = test system: Lolium rigidum (LOLRI); assay: Pre-emergence herbicidal action against LOLRI
In short: as §2

**Q.** What does the source list for `COC(=O)[C@@H](C)Oc1nn(-c2ncccc2F)c(-c2ccc(F)nc2)c1C(F)(F)F` [Example I-331]?
**A.** Post-emergence action against ALOMY in % ([1]; 80 g/ha): 100%; Post-emergence action against ALOMY in % ([1]; 320 g/ha): 100%; Pre-emergence action against POLCO in % ([2]; dosage 80 g/ha): 100%; Pre-emergence action against POLCO in % ([2]; dosage 320 g/ha): 100%; Post-emergence action against MATIN in % ([3]; dosage 80 g/ha): 80%; Post-emergence action against MATIN in % ([3]; dosage 320 g/ha): 80%; Pre-emergence action against AVEFA in % ([4]; 80 g/ha): 100%; Pre-emergence action against AVEFA in % ([4]; 320 g/ha): 100%; Pre-emergence action against SETVI in % [5]: 90%; Pre-emergence action against ALOMY ([6]; 80 g/ha): 100%; Pre-emergence action against ALOMY ([6]; 320 g/ha): 100%; Post-emergence action against ABUTH in % ([7]; 80 g/ha): 90%; Post-emergence action against ABUTH in % ([7]; 320 g/ha): 90%; Post-emergence action against AVEFA in % ([8]; 80 g/ha): 90%; Post-emergence action against AVEFA in % ([8]; 320 g/ha): 90%; Pre-emergence action against AMARE in % ([9]; 80 g/ha): 100%; Pre-emergence action against AMARE in % ([9]; 320 g/ha): 100%; Pre-emergence action against VIOTR in % ([10]; 320 g/ha, Viola tricolor): 100%; Pre-emergence action against VIOTR in % ([10]; dosage 80 g/ha): 100%; Post-emergence action against POLCO in % ([11]; dosage 80 g/ha): 80%; Post-emergence action against POLCO in % ([11]; dosage 320 g/ha): 80%; Pre-emergence action against VERPE in % ([12]; dosage 80 g/ha): 100%; Pre-emergence action against VERPE in % ([12]; dosage 320 g/ha): 100%; Post-emergence action against PHBPU in % [13]: 90%; Post-emergence action against VERPE in % ([14]; 320 g/ha, VERPE): 90%; Post-emergence action against VERPE in % ([14]; dosage 80 g/ha): 90%; Pre-emergence action against ABUTH ([15]; 80 g/ha, scored visually after about 3 weeks vs untreated controls, 0% = like control plants): 80%; Pre-emergence action against ABUTH ([15]; Dosage column 320 g/ha (title prints 3200 g/ha), scored visually after about 3 weeks): 90%; Post-emergence action against AMARE in % ([16]; 80 g/ha, visual rating about 3 weeks after treatment vs untreated controls (100% = plants have died, 0% = like control plants)): 80%; Post-emergence action against AMARE in % ([16]; 320 g/ha, visual rating about 3 weeks after treatment): 80%; Post-emergence action against LOLRI in % ([17]; dosage 80 g/ha): 90%; Post-emergence action against LOLRI in % ([17]; dosage 320 g/ha): 90%; Pre-emergence action against PHBPU in % [18]: 90%; Post-emergence action against VIOTR in % ([19]; 80 g/ha): 80%; Post-emergence action against VIOTR in % ([19]; 320 g/ha): 80%; Post-emergence action against SETVI in % ([20]; dosage 80 g/ha): 90%; Post-emergence action against SETVI in % ([20]; dosage 320 g/ha): 90%; Pre-emergence action against ECHCG in % ([21]; dosage 80 g/ha): 80%; Pre-emergence action against ECHCG in % ([21]; dosage 320 g/ha): 100%; Pre-emergence action against MATIN in % ([22]; dosage 80 g/ha): 100%; Pre-emergence action against MATIN in % ([22]; dosage 320 g/ha): 100%; Post-emergence action against ECHCG in % ([23]; dosage 80 g/ha): 90%; Post-emergence action against ECHCG in % ([23]; dosage 320 g/ha): 90%; Pre-emergence action against LOLRI in % ([24]; dosage 80 g/ha): 90%; Pre-emergence action against LOLRI in % ([24]; dosage 320 g/ha): 100%
